Results as given in patent US7223777B2, “Compounds for the management of aging-related and diabetic vascular complications, process for their preparation, therapeutic and cosmetic uses thereof” (Torrent Pharmaceuticals Ltd., priority 2001, dated 2007).
One block for each compound: values may come before it.

How the values were obtained:
AGE-BSA = target: T1, AGE-BSA (Bos taurus, UniProt P02769); assay: In-vitro screening for AGE-breaking activity (AGE-BSA incubated with compound; ELISA / gel permeation chromatography); assay type: biochemical, bovine; conditions: 37° C., 24 hours
T1 construct: Bovine serum albumin (fraction V) (BSA); from tissue; host or cells: bovine serum (fraction V); own knowledge: fraction V is the albumin fraction of plasma/serum
Description: Fluorescence was used as the criteria to monitor the increased AGE formation.
160 mg/ml of protein, bovine serum albumin, BSA and 1.6M glucose sugar were dissolved in phosphate buffered saline, PBS. Sodium azide was added at 0.02% concentration as a preservative. The solution was filtered asceptically through a […] filter and kept for aging at 37° C. for 16 weeks. After 16 weeks the solution was dialyzed against PBS, aliquoted and stored at −20° C.
To determine the AGE breaking activity, 10 μg/ml of the 16 weeks AGE-BSA was incubated with different concentrations of the test compounds at 37° C. for 24 hours and AGE breaking activity of the test compounds by ELISA was determined.
• 1. Different concentrations of 16 weeks AGE-BSA were coated on a microtiter plate as standard. Each concentration is coated in triplicates. • 2. The test samples were coated on microtiter plate at a concentration of 5 ng. to 20 ng per well in triplicates. • 3. The plate was incubated at 37° C. for one hour. • 4. After incubation the plate was washed with PBST (PBS with 0.05% Tween 20). • 5. Blocking with 5% skimmed milk in PBS at 37° C. for one hour was done. • 6. The plate was washed with PBST. • 7. Primary antibody against AGE-BSA was added and the plate is incubated at 37° C. for one hour. • 8. The plate was washed with PBST. • 9. Secondary antibody anti rabbit HRPO (Horse-Radish Per Oxidase) conjugate was added and the plate is incubated at 37° C. for one hour. • 10. The plate was washed with PBST. • 11. Colour development with OPD (orthophenylenediamine dihydrochloride) and hydrogen peroxide was done. • 12. OD (optical density) at (450 nm reading –620 nm reading) was measured after incubation at 37° C. for 15 minutes with Microplate ELISA Reader.
The breaker activity of the compounds were determined by the following formula:
[formula] OD450-620Control=Absorbance of 20 ng AGE-BSA after incubation at 37° C. for 24 hours without test compound. OD450-620Test=Absorbance of 20 ng AGE-BSA after incubation at 37° C. for 24 hours with required concentration of test compound.
Gel Permeation Chromatography based method was used to determine AGE breaking activities of the compounds.
Separation by Gel Permeation Chromatography (GPC) depends on differences in the size, more precisely the hydrodynamic volume, of the proteins in a sample. […] The pores of a column particle are differentially accessible to smaller particles, depending on their size. This volume of the column is called (V1). The total accessible volume (Vt) is the sum of the volume outside the particles (V0) and the volume accessible inside the particles (V1): Vt=V0+Vi Therefore, in a typical Gel Permeation Chromatography (GPC) run, high molecular weight molecules elute at a lower retention time whereas lower molecular weight molecules are retained for longer time. For the purpose of quantification, the area under the curve for the respective molecule is recorded. The same principle has been applied in the in vitro screening of the molecules of instant invention. Highly cross-linked Advanced Glycosylated Endproducts (AGE) were prepared in vitro by incubating Bovine Serum Albumin (BSA) with glucose for a period of 16 weeks. […] The reduction in the area of AGE-BSA incubated in the presence of AGE breaker as compared to that of control AGE BSA (incubated in absence of AGE breaker) gives an estimate of the AGE breaker activity of the drug. In order to check the non-specific activity of the molecule, a similar experiment was repeated with BSA as well. Methodology:
A known concentration of 16-week AGE-BSA was incubated with and without a predetermined concentration of the drug at 37° C. for 24 hours in clean transparent glass test tubes. The solution without drug served as the control and the solution containing the drug was treated as the test sample.
Gel permeation chromatography was performed on equal volumes of control AGE-BSA preparation and solution of AGE-BSA treated with drug. […]

[1] = test system: Maillard reaction in-vitro (BSA, ribose); assay: Test for AGE inhibiting activity (Maillard reaction in-vitro, BSA + ribose, fluorescence); assay type: biochemical, bovine; conditions: 37° C., 7 days
Description: The following method was used to determine the inhibitory effect of the test compounds on Maillard reaction in-vitro. This method is adopted from U.S. Pat. No. 5,514,676 and European Patent No. 0 339 496 A2.
A solution of Bovine Serum Albumin (BSA), ribose and test compound was prepared in Phosphate Buffer Saline (PBS, pH 7.4) so as to have final concentration of BSA and ribose at 10 mg/ml and 500 mM respectively. Addition of compound was done in aseptic conditions. Sodium azide (0.02%) was also added in this solution in order to prevent microbial growth. A separate tube containing BSA, ribose and sodium azide in the same concentration and buffer as above, but without any test compound, was also incubated as positive control. After incubation at 37° C. for 7 days, 40 micro liter sample from each tube was removed and diluted with PBS to have final concentration of BSA at 1 mg/ml. The fluorescence of all the samples was measured at Excitation Maximum of […] and the Emission Maximum of […] using f-MAX Fluorimeter (Molecular Device, USA). In order to study the effect of test compound on fluorescence, freshly prepared compound solution was mixed with previously incubated positive control (i.e. BSA+ribose), so as to achieve same concentration of all the components as that of test samples.
The percent inhibition of test compound was measured as follows:
[formula] Where F3=Fluorescence of BSA+ribose+compound, F4 is fluorescence of incubated (BSA+ribose)+freshly added test compound.

[2] = Free radical scavenging activity on ABTS radical cation; assay type: biochemical
Description: This method measures the relative ability of free radical scavenging substances to scavenge the ABTS.^+ i.e. 2,2-Azino-bis-(3-ethyl benzo thiazoline-6-sulfonate) radical cation as compared to a standard amount of standard or free radical scavengers antioxidants. Incubation of ABTS with Peroxidase (metmyoglobin) and hydrogen peroxide results in the production of radical cation ABTS.^+. This species is blue-green in colour and can be detected at 730 nm. Antioxidants or free radical scavengers in the added sample that causes suppression of the color to a degree that is proportional to their concentration.
Preparation of Buffer Solutions: • a. Phosphate Citrate Buffer (pH 5.0): 48.5 ml of 0.1M citric acid with sufficient 0.2M disodium hydrogen phosphate to produce 100 ml. • b. Phosphate Buffer Saline (PBS): Dissolve 40.0 g of NaCl, 1.0 g of KCl, 1.0 g of KH2PO4 and 3.05 g of Na2HPO4 in 1 liter milli-Q water. Dilute 200 ml of above solution to 1 liter with milli-Q water (pH 7.4–7.6).
Preparation of ABTS Stock Solution (2 mM): • 1 tablet (10 mg) was dissolved in phosphate citrate buffer (pH 5.0) to give a 2 mM solution.
Preparation of Horse Radish Peroxidase Working Solution: • 0.1 mg was dissolved in 10 ml of phosphate buffer saline, 1 ml of this solution was diluted to 100 ml with PBS.
Preparation of Hydrogen Peroxide (1.08 mM) Solution: • 12 μl of Hydrogen Peroxide (30% w/v) was diluted to 100 ml with PBS.
Preparation of Drug Solutions: • 0.1 mM of stock solution of the drug was prepared which was serially diluted in PBS to get 0.05 mM, 0.025 mM and 0.0125 mM solutions.
Preparation of ABTS Radical Stock Solution: • To 2 ml of ABTS stock solution, 1 ml of horseradish Peroxidase working solution was added. • As soon as 2 ml of Hydrogen peroxide solution was added to the above solution, blue-green colour of the ABTS radicals appeared. This solution was incubated at 30° C. for 30 min in order to ensure the completion reaction. Make up the volume to 10 ml with PBS.
Preparation of Control Solution: • 900 μl of ABTS radical stock solution were added to an eppendorf tube. To it were added 100 μl of PBS solution.
Preparation of Test Solution: • 900 μl of ABTS radical stock solutions were added to different eppendorf tubes. To it were added 100 μl of various concentrations of drug solution.
Measurement of Absorbance (O.D): • The absorbance of control and test samples was recorded immediately at 730 nm taking PBS as blank.
Calculation: • The percent antioxidant activity was calculated according to the formula: % Antioxidant activity=100−[O.D of test sample/O.D of control×100]

T1 sequence (P02769 25-607): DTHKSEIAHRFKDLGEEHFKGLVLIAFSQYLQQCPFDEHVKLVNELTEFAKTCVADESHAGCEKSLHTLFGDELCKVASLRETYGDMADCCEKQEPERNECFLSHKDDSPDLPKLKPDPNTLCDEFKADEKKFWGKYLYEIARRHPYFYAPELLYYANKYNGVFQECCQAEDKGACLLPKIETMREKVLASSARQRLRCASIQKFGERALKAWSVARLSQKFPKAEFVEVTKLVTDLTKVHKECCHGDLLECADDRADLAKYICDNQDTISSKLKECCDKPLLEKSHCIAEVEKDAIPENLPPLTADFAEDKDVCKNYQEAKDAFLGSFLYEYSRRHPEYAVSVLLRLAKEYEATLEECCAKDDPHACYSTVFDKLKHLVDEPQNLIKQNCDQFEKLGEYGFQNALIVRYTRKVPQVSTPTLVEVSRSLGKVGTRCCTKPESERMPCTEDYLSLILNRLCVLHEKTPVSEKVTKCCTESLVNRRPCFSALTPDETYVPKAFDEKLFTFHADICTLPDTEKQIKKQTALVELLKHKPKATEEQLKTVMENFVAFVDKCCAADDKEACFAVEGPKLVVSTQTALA

Compound: O=C(C[n+]1cccc(-c2cc(COc3ccccc3)nn2-c2ccccc2)c1)c1ccccc1.[Cl-] [Compound 34, 1-(2-Phenyl-2-oxoethyl)-3-[(1-phenyl-3-phenoxymethyl)pyrazol-5-yl]pyridinium chloride]
- % Breakage (AGE-BSA; 10 mM compound): 100.0%
- % Inhibition (Day 7) ([1]; 5 mM compound): 60%
- Relative Free Radical Scavenging Activity (%) on ABTS ([2]; 12.5 μM): 13.2%
- Relative Free Radical Scavenging Activity (%) on ABTS ([2]; 25.0 μM): 19.08%
- Relative Free Radical Scavenging Activity (%) on ABTS ([2]; 50.0 μM): 26.39%
- Relative Free Radical Scavenging Activity (%) on ABTS ([2]; 100.0 μM): 29.40%

Compound: 1-(2-Thien-2′-yl-2-oxoethyl)-3-[(1-cyclohexyl-3-(3,5-dimethylpyrazol-1-yl)methyl)pyrazol-5-yl]pyridinium chloride [Compound 35]
- % Breakage (AGE-BSA; 10 mM compound): 66.66%
- % Inhibition (Day 7) ([1]; 10 mM compound): 73.8%
- Relative Free Radical Scavenging Activity (%) on ABTS ([2]; 12.5 μM): 28.27%
- Relative Free Radical Scavenging Activity (%) on ABTS ([2]; 25.0 μM): 39.78%
- Relative Free Radical Scavenging Activity (%) on ABTS ([2]; 50.0 μM): 58.34%
- Relative Free Radical Scavenging Activity (%) on ABTS ([2]; 100.0 μM): 74.36%

Compound: O=C(C[n+]1cccc(-c2cc(COc3ccccc3)nn2-c2ccccc2)c1)c1cccs1.[Cl-] [Compound 29, 1-(2-Thien-2′-yl-2-oxoethyl)-3-[(1-phenyl-3-phenoxymethyl)pyrazol-5-yl]pyridinium chloride]
- % Inhibition (Day 7) ([1]; 5 mM compound): 55.22%
- Relative Free Radical Scavenging Activity (%) on ABTS ([2]; 12.5 μM): 31.82%
- Relative Free Radical Scavenging Activity (%) on ABTS ([2]; 25.0 μM): 46.84%
- Relative Free Radical Scavenging Activity (%) on ABTS ([2]; 50.0 μM): 58.84%
- Relative Free Radical Scavenging Activity (%) on ABTS ([2]; 100.0 μM): 55.22%

Compound: Cc1cc(C)n(Cc2cc(-c3ccc[n+](CC(=O)c4cccs4)c3)n(-c3ccccn3)n2)n1.[Br-] [Compound 6, 1-(2-Thien-2′-yl-2-oxoethyl)-3-[3{(3,5-dimethylpyrazol-1-yl)methyl-1-(2-pyridyl)}pyrazol-5-yl]pyridinium bromide]
- % Inhibition (Day 7) ([1]; 10 mM compound): 66%
- Relative Free Radical Scavenging Activity (%) on ABTS ([2]; 12.5 μM): 21.99%
- Relative Free Radical Scavenging Activity (%) on ABTS ([2]; 25.0 μM): 40.56%
- Relative Free Radical Scavenging Activity (%) on ABTS ([2]; 50.0 μM): 61.68%
- Relative Free Radical Scavenging Activity (%) on ABTS ([2]; 100.0 μM): 81.04%

Compound: O=C(C[n+]1cccc(-c2cc(-c3ccc[n+](CC(=O)c4cccs4)c3)[nH]n2)c1)c1cccs1.[Br-].[Br-] [Compound 10, 3,5-Bis-[1-(2-thien-2′-yl-2-oxoethyl)-pyridinium-3-yl]-pyrazole dibromide]
- % Inhibition (Day 7) ([1]; 2.5 mM compound): 75%
- Relative Free Radical Scavenging Activity (%) on ABTS ([2]; 12.5 μM): 41.01%
- Relative Free Radical Scavenging Activity (%) on ABTS ([2]; 25.0 μM): 72.97%
- Relative Free Radical Scavenging Activity (%) on ABTS ([2]; 50.0 μM): 85.75%
- Relative Free Radical Scavenging Activity (%) on ABTS ([2]; 100.0 μM): 87.04%

The next lines start with results.

- % Breakage (AGE-BSA; 5 mM compound): 52.97%
Compound: Cc1cc(C)n(Cc2cc(-c3ccc[n+](CC(=O)c4ccc(C)s4)c3)[nH]n2)n1.[Cl-] [Compound 18, 1-(2-(5-Methyl-2-thienyl)-2-oxoethyl)-3-[(3,-(3,5-dimethylpyrazol-1-yl)methyl)pyrazol-5-yl]pyridinium chloride]
- % Inhibition (Day 7) ([1]; 5 mM compound): 79%
- Relative Free Radical Scavenging Activity (%) on ABTS ([2]; 12.5 μM): 28.65%
- Relative Free Radical Scavenging Activity (%) on ABTS ([2]; 25.0 μM): 53.8%
- Relative Free Radical Scavenging Activity (%) on ABTS ([2]; 50.0 μM): 84.41%
- Relative Free Radical Scavenging Activity (%) on ABTS ([2]; 100.0 μM): 95.32%

- % Breakage (AGE-BSA; 10 mM compound): 100.00%
Compound: O=C(C[n+]1cccc(-c2cc(CCC3CCCCC3)n[nH]2)c1)c1ccccc1.[Cl-] [Compound 22]
- % Inhibition (Day 7) ([1]; 2.5 mM compound): 51%
- Relative Free Radical Scavenging Activity (%) on ABTS ([2]; 12.5 μM): 22.52%
- Relative Free Radical Scavenging Activity (%) on ABTS ([2]; 25.0 μM): 29.52%
- Relative Free Radical Scavenging Activity (%) on ABTS ([2]; 50.0 μM): 30.31%
- Relative Free Radical Scavenging Activity (%) on ABTS ([2]; 100.0 μM): 31.40%

- % Breakage (AGE-BSA; 5 mM compound): 76.84%
Compound: O=C(C[n+]1cccc(-c2cc(Cc3ccccc3)nn2-c2ccccc2)c1)c1cccs1.[Cl-] [Compound 11, 1-(2-Thien-2′-yl-2-oxoethyl)-3-[(1-phenyl-3-phenylmethyl)pyrazol-5-yl]-pyridinium chloride]
- % Inhibition (Day 7) ([1]; 1.25 mM compound): 32.9%
- Relative Free Radical Scavenging Activity (%) on ABTS ([2]; 12.5 μM): 26.78%
- Relative Free Radical Scavenging Activity (%) on ABTS ([2]; 25.0 μM): 45.74%
- Relative Free Radical Scavenging Activity (%) on ABTS ([2]; 50.0 μM): 70.61%
- Relative Free Radical Scavenging Activity (%) on ABTS ([2]; 100.0 μM): 86.46%
